How the values were obtained:
MFM-223 = assay: normalised viability (% of control), CellTiter-Blue; higher = more viable cells (about 100 = DMSO control); conditions: incubation time: 72 h
Protocol: (§1)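 DSRT, CellTiter-Blue viability, 72 h incubation. Signal is normalised to DMSO and benzethonium chloride controls. Value is the normalised response at dose 3.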

Hs578T [1] = assay: as above; conditions: incubation time: 72 h
Protocol: as §1

MDA-MB-231 = assay: drug sensitivity score (DSS), CellTox Green (DSS (AUC-based score)); higher = stronger drug effect (viability inhibition or cytotoxicity); extreme values may be limits of the assay; conditions: incubation time: 72 h
Method in brief: (§2)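 Breast cancer cells were seeded into 384-well plates containing compound at 5 concentrations in 10-fold steps over a compound-specific 10,000-fold range and incubated 72 h. After CellTox Green and CellTiter-Glo readings, each plate was normalised to 0.1 % DMSO and a positive kill control. The drug sensitivity score rests on the area under the fitted dose-response curve.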

HCC1937 = assay: as above; conditions: incubation time: 72 h
Method in brief: as §2

MDA-MB-468 = conditions: 72 h
Method in brief: (§3)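 Breast cancer cell lines (20 µl suspension) were seeded into 384-well plates holding compound at 5 concentrations in 10-fold steps over a compound-specific 10,000-fold range, then incubated 72 h. Cell death was read first by CellTox Green fluorescence (485/520 nm), then viability by CellTiter-Glo luminescence after 10 min at room temperature. Each plate was normalised to 0.1 % DMSO and a positive kill control. EC50 was fitted from the dose-response curves and censored at the top concentration.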

Hs578T [2] = assay: drug sensitivity score (DSS), CellTox Green (DSS (AUC-based score)); higher = stronger drug effect (viability inhibition or cytotoxicity); extreme values may be limits of the assay; conditions: incubation time: 72 h
Method in brief: as §2

CAL-120 = conditions: 72 h
Method in brief: as §3

SMILES	normalised viability (MFM-223; 100 nM) [%]	normalised viability (Hs578T [1]; 100 nM) [%]	drug sensitivity score (MDA-MB-231)	drug sensitivity score (HCC1937)	EC50, CellTiter-Glo (MDA-MB-468) [nM]	drug sensitivity score (Hs578T [2])	EC50, CellTiter-Glo (CAL-120) [nM]	normalised viability (MFM-223; 10 nM) [%]	normalised viability (Hs578T [1]; 10 nM) [%]
CN1CCC(COc2cnc(-c3cccc(Cn4nc(-c5cccc(C#N)c5)ccc4=O)c3)nc2)CC1	96.9	76.3	0	0	–	–	–	–	–
CN(C)C/C=C/C(=O)Nc1cc2c(Nc3ccc(F)c(Cl)c3)ncnc2cc1O[C@H]1CCOC1 [Afatinib]	84.8	84.2	0	1.72	158	1.68	–	–	–
COc1cc(Nc2ncc3c(n2)-c2ccc(Cl)cc2C(c2c(F)cccc2OC)=NC3)ccc1C(=O)O [Alisertib]	–	–	8.87	1.76	26.9	0	338	–	–
CN1CC[C@H](c2c(O)cc(O)c3c(=O)cc(-c4ccccc4Cl)oc23)[C@H](O)C1 [Alvocidib]	76.3	51.5	16.5	0	261	8.33	167	–	–
Nc1nc(Cl)nc2c1ncn2[C@H]1C[C@H](O)[C@@H](CO)O1 [Cladribine]	–	–	0.0524	0	> 1000	0	445	85	98.4
Nc1ccn([C@@H]2O[C@H](CO)[C@@H](O)[C@@H]2O)c(=O)n1 [Cytarabine]	103	65.1	0	0	618	0	> 10000	–	–
Cc1c2oc3c(C)ccc(C(=O)N[C@@H]4C(=O)N[C@H](C(C)C)C(=O)N5CCC[C@H]5C(=O)N(C)CC(=O)N(C)[C@@H](C(C)C)C(=O)O[C@@H]4C)c3nc-2c(C(=O)N[C@@H]2C(=O)N[C@H](C(C)C)C(=O)N3CCC[C@H]3C(=O)N(C)CC(=O)N(C)[C@@H](C(C)C)C(=O)O[C@@H]2C)c(N)c1=O [Dactinomycin]	–	–	20.5	0	1.54	12.5	10.2	67.5	23.3
COc1cccc2c1C(=O)c1c(O)c3c(c(O)c1C2=O)C[C@@](O)(C(=O)CO)C[C@@H]3O[C@H]1C[C@H](N)[C@H](O)[C@H](C)O1 [Doxorubicin]	–	–	0	0	139	0	872	89.4	99.5
Cc1ccc(F)c(NC(=O)Nc2ccc(-c3cccc4[nH]nc(N)c34)cc2)c1 [Linifanib]	–	–	0	0	–	0	–	102	82.9
COc1cc(Nc2ncc3c(n2)-c2ccc(Cl)cc2C(c2c(F)cccc2OC)=NC3)ccc1C(=O)O [MLN8237]	77.7	51.3	–	–	–	–	–	–	–
S=c1[nH]cnc2nc[nH]c12 [Mercaptopurine]	93.6	113	0	0	–	0	4710	–	–
Clc1ccc(C(c2ccccc2Cl)C(Cl)Cl)cc1 (stereo not given) [Mitotane]	93.9	99.8	–	1.4	–	0	–	–	–
CCN1CCN(c2ccc(Nc3cc(N(C)C(=O)Nc4c(Cl)c(OC)cc(OC)c4Cl)ncn3)cc2)CC1 [NVP-BGJ398]	–	–	2.84	0	–	0	252	–	–
COc1cccc2cc(-c3nc([C@H]4CC[C@H](C(=O)O)CC4)n4ncnc(N)c34)[nH]c12 [OSI-027]	73.7	84.1	0	0	4990	0	3850	–	–
OC[C@H]1O[C@@H](n2cnc3c2N=CNC[C@H]3O)C[C@@H]1O [Pentostatin]	95.8	91.5	0	0	–	0	–	–	–
N#CC[C@H](C1CCCC1)n1cc(-c2ncnc3[nH]ccc23)cn1 [Ruxolitinib]	93.2	79.2	0	–	> 10000	0	1670	–	–
C=CC[C@@H]1/C=C(\C)C[C@H](C)C[C@H](OC)[C@H]2O[C@@](O)(C(=O)C(=O)N3CCCC[C@H]3C(=O)O[C@H](/C(C)=C/[C@@H]3CC[C@@H](O)[C@H](OC)C3)[C@H](C)[C@@H](O)CC1=O)[C@H](C)C[C@@H]2OC [Tacrolimus]	99.2	109	2.92	0	–	0	–	–	–
C=CCNC1=C2C[C@@H](C)C[C@H](OC)[C@H](O)[C@@H](C)/C=C(\C)[C@H](OC(N)=O)[C@@H](OC)/C=C\C=C(/C)C(=O)NC(=CC1=O)C2=O [Tanespimycin]	29.2	50.2	25.3	0	532	1.53	269	–	–
CO[C@H]1C[C@@H]2CC[C@@H](C)[C@@](O)(O2)C(=O)C(=O)N2CCCC[C@H]2C(=O)O[C@H]([C@H](C)C[C@@H]2CC[C@@H](OC(=O)C(C)(CO)CO)[C@H](OC)C2)CC(=O)[C@H](C)/C=C(\C)[C@@H](O)[C@@H](OC)C(=O)[C@H](C)C[C@H](C)/C=C/C=C/C=C/1C [Temsirolimus]	–	–	0	0	0.15	22.6	1.08	49.8	50.2
C[C@]1(c2nc3c(C(N)=O)cccc3[nH]2)CCCN1 [Veliparib]	89.9	76.7	0	0	–	0	–	–	–
CC[C@]1(O)C[C@@H]2CN(CCc3c([nH]c4ccccc34)[C@@](C(=O)OC)(c3cc4c(cc3OC)N(C)[C@H]3[C@@](O)(C(=O)OC)[C@H](OC(C)=O)[C@]5(CC)C=CCN6CC[C@]43[C@@H]65)C2)C1 [Vinblastine]	–	–	17	0	2.95	21.4	2.04	76.7	14.7
CS(=O)(=O)c1ccc(C(=O)Nc2ccc(Cl)c(-c3ccccn3)c2)c(Cl)c1 [Vismodegib]	104	80.1	0	0	–	1.09	–	–	–
